Experimental data from US8263656B2 (Hoffmann-La Roche Inc., priority 2008, dated 2012).

Tests used:
human CRTH2 = target: T1, human CRTH2 (Homo sapiens, UniProt Q9Y5Y4); experiment: Human CRTH2 Receptor Binding Assay (whole cell, [3H]ramatroban competition); details: CHO-K1 cells expressing human CRTH2 and G-alpha16; 20 nM [3H]ramatroban; 1 hour, room temperature
T1 construct: expressed in transfected cells
T1 sequence (Q9Y5Y4 1-395): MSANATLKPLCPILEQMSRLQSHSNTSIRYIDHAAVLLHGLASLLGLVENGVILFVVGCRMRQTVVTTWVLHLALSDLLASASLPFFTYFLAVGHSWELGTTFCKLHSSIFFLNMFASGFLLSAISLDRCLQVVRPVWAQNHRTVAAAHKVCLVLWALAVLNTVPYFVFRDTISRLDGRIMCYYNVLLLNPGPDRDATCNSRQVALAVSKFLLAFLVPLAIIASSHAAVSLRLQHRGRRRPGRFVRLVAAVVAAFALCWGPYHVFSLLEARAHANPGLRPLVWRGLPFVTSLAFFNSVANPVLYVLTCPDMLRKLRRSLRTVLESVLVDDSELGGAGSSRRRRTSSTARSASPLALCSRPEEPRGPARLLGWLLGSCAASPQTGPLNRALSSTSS
Summary of the method: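 CHO-K1 cells stably expressing human CRTH2 and G-alpha16 (1.5×10^5 cells) incubated 1 h at room temperature with 20 nM [3H]ramatroban in PBS, 10 mM MgCl2, 0.06% BSA, then filtered and counted. Non-specific binding defined with 10 μM 15(R)-15-methyl PGD2; IC50 from 7-concentration 4-parameter logistic fit of specific-binding inhibition.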

[1] = tested on: DK-PGD2-induced IL-13 production in T helper type 2 (Th2) cells; experiment: DK-PGD2-Induced IL-13 Production Assay in Th2 Cells; type: cell-based; details: human Th2 cells, 500 nM DK-PGD2, 4 hrs at 37° C., ELISA; unit inferred; read-out: IC50 of inhibiting IL-13 production (values greater than 10)
Description: Inhibition of 13,14-dihydro-15-keto Prostaglandin D2 (DK-PGD2)-induced IL-13 production in T helper type 2 (Th2) cells was applied to evaluate compound cellular potency.
Cultures of Th2 cells were established from blood of healthy human volunteers according to the following procedure. Peripheral blood mononuclear cells (PBMC) were first isolated from 50 mL of fresh blood by Ficoll-Hypaque density gradient centrifugation, followed by CD4^+ cell purification using a CD4^+ T Cell Isolation Kit II (from Miltenyi Biotec Inc.). The CD4^+ T cells were then differentiated to Th2 cells by culturing the cells in X-VIVO 15® medium (from Cambrex BioScience Walkersville Inc.) containing 10% human AB serum (serum of blood type AB from Invitrogen Corporation), 50 U/mL of recombinant human interleukin-2 (rhIL-2) (from PeproTech Inc.) and 100 ng/mL of recombinant human interleukin-4 (rhIL-4) (from PeproTech Inc.) for 7 days. The Th2 cells were isolated using a CD294 (CRTH2) MicroBead Kit (from Miltenyi Biotec Inc.) and amplified in X-VIVO 15® medium containing 10% human AB serum and 50 U/mL of rhIL-2 for 2 to 5 weeks. In general, 70% to 80% of the Th2 cells used in the assay are CRTH2-positive when analyzed by fluorescence-activated cell sorting using the BM16 antibody (as previously described) conjugated to phycoerythrin (PE).
The spontaneous production of IL-13 by Th2 cells was determined in the absence of DK-PGD2 stimulation and the value was subtracted from that in the presence of each compound for percent inhibition and IC50 calculations.
The percent inhibition of interleukin 13 (IL-13) production for a compound at various concentrations was calculated according to the following formula, [1-(IL-13 production in the presence of compound)/(IL-13 production in the presence of 0.15% DMSO)]×100. The IC50 value, defined as the concentration of a compound that is required for 50% inhibition of IL-13 production, was calculated by fitting the percent inhibition data for 7 concentrations to a sigmoidal dose-response (4 parameter logistic) model in the XLfit® software Excel add-in program [ID Business Solutions Ltd., model 205, where F(x)=(A+(B−A)/(1+((C/x)^D)))].

SMILES: CN(C1CCCc2c(OCC(=O)O)cc(F)cc21)S(=O)(=O)c1ccc(Cl)cc1Cl (centres unmarked) [Example 2-16]
- IC50 (human CRTH2): 0.981 µM
- IC50 [1]: > 10 µM
